The source of these data is patent publication US4966169A, “Process for manufacturing cigarettes” (priority 1988, dated 1990).

In data set [1] the test system is rodents. The settings on record: cited from earlier work; for carcinogenicity: rat, in vivo.
Data set [2] has as its system tissue macromolecules. The settings on record: cited from earlier work; for metabolic activation: rats, hamsters and monkeys; for binding of metabolites to macromolecules: tracheobronchial and nasal mucosa, kidney, liver, sublingual and submaxillary glands, esophagus, melanin of the eye.
The subject of data set [3] is nitrosamines such as NNN and metabolites thereof in mammalian tissues. In words: Inhibition of selective localization of nitrosamines (general statements). The class given is in vivo. The following applies: qualitative statement.
In data set [4] the test system is rats. The following applies: cited from earlier work.
The conditions of data set [5]: cited from earlier work.
For data set [6], the system named is nitrosamine localization. The data set can be described thus: Examples 4 and 5: intraperitoneal imidazole, whole-body autoradiography after [14C] NNN. It counts as in vivo, C57BL/6J mouse. The protocol:
An adult male C57BL/6J mouse was injected intraperitoneally with 0.02 ml/g body weight of a solution of imidazole in water. The imidazole solution concentration was such that 0.05 g of imidazole was delivered per kg of body weight. […] See Example 1.
Example 4 was duplicated except that the adult mouse was injected intraperitoneally with 0.02 ml/g body weight of a solution of imidazole in water, wherein the solution concentration was such that 0.25 g of imidazole was delivered per kg of body weight.

In data set [7] the test system is bronchial epithelium. The data set can be described thus: Example 1: whole-body autoradiography, inhibition of localization of [14C] NNN radioactivity in bronchial epithelium. The class given is in vivo, C57BL/6J mice. The settings on record: for dose relation of reduction in photometric density: oral alcohols. On the procedure: (§1) One hour later, the mice were anesthetized lightly with ether and frozen by immersion in dry ice/hexane. Twenty u-thick whole-body sagittal sections of the frozen mice were taken onto Scotch tape and were then processed for whole-body autoradiography by known methods. See W. Waddell et al, Drug Fate and Metabolism: Methods and Techniques, E.R. Garrett and J. L. Hirtz, Eds. […] Photometric density in areas of the developed autoradiographs was measured with an ADG Instruments photometer and a photocell with an aperture of three mm lying on the easel of a photographic enlarger. The X-ray film was placed in the enlarger and raised to produce a magnification of thirty-five times on the easel.
(§2) NNN. […] (Twenty minutes is the average time it takes for alcohols introduced by oral intubation into mice to reach the peak blood level.)
(§3) The number within each bar thereof represents the dose in g/kg of that alcohol which was administered orally twenty minutes before the [^14 C] NNN was given intravenously. The mice were frozen one hour after receiving the [^14 C] NNN. The means for each mouse were from fifteen measurements on random areas of that site (five absorbancies on each of three autoradiographs) after setting blood in each on zero. The control value is the mean from six mice; the n-butanol at 1 g/kg is from two mice; the other means are from one mouse.

Data set [8] relates to tumor development. The following applies: cited from earlier work.
Data set [9] deals with adult human. The following applies: cited from earlier work.
Data set [10] concerns formation of nitrosamines on epithelial membranes. The following applies: cited from earlier work.
In data set [11] the test system is bronchial epithelium. In words: Examples 2 and 3: cyclohexanol vapor inhalation, whole-body autoradiography after [14C] NNN. The following applies: inhaled 5 min. The class given is in vivo, C57BL/6J mouse. The protocol:
The mouse was kept in the closed beaker for about five minutes as the bottom of the beaker was maintained at 50° C. in a water bath. […] Handbook of Chemistry and Physics (1979) at D-203 to D-217.
One hour later, the mouse was anesthetized lightly by ether and frozen by immersion in dry ice/hexane. […] Control experiments were conducted for comparison purposes and radioactivity was detected in the respiratory epithelium in the controls.
Example 2 was duplicated, except that the mouse was kept in the closed beaker for five minutes as the bottom of the beaker was maintained at 26° C. in a water bath. […] After injection as in Example 2, the mouse was processed in the same manner as in Example 2.

Data set [12] concerns human exposure. The data set can be described thus: OSHA time weighted average (TWA) exposure limit. The settings on record: TWA 200 mg/m^3. An excerpt:
On the other hand, the quantity of alcohol transferred and inhaled by the smoker must be at a safe amount and less than the maximum volumetric concentrations permitted for each alcohol by any applicable government regulation, such as in the United States those of the U.S. Occupational Safety and Health Administration (OSHA) Time Weighted Average (TWA). Other helpful guidelines are published by the Flavoring Extract Manufacturers' Association (Generally Regarded As Safe list), and the Hunter Committee from Great Britain. If a substance has not been evaluated in the literature, the toxicity of that substance (alcohol) should be evaluated before use. Compounds or alcohols herein are analyzed individually and the toxicity of a mixture of compounds is assumed to be the toxicity of the most toxic individual substance in the compound. It is expected that 1-1000 micrograms (and more particularly approximately 800 micrograms) of the blocking alcohol(s) would be needed on the rag tobacco for a cigarette containing 400-1200 milligrams (and more particularly approximately 800 milligrams) of tobacco. Yet another way of defining the quantity of alcohol is its concentration in air, which should be about 0.1% to 0.001% (see Example 3, supra). […]

In data set [13] the test system is human exposure. The following applies: cited from earlier work.
Data set [14] deals with periportal and central areas of the liver. The settings on record: oral intubation 20 min before [14C] NNN. The protocol:
as §1, §2, §3

In data set [15] the test system is salivary duct epithelium. The settings on record: oral intubation 20 min before [14C] NNN. The protocol: as §1, §2, §3

Entries after “also recorded” stand apart in the source; their conditions may differ. Read-outs that look alike come from different tables or passages of the source.

Turning to `O=NN1CCCC1c1cccnc1` (stereo not drawn) [NNN, Nnitrosonornicotine], the tumor induction entry in data set [1] (F-344 rats, drinking water) is “esophageal tumors have been induced”. Further, the “sites of tumor formation” value in data set [1] (nasal cavity, salivary duct, esophagus, bronchial epithelium and liver) is reported as “induces tumor formation at five sites”. The carcinogenicity result in data set [1] was “powerful environmental carcinogens”. Also, the carcinogenesis entry in data set [1] (rodents, olfactory epithelium, lung, salivary glands) is “induce carcinogenesis in the olfactory epithelium, lung, salivary glands”. In addition, the metabolism entry in data set [2] (F-344 rat esophagus vs other tissues) is “preferentially catalyzes hydroxylation at the a-carbon of NNN adjacent to the pyridine ring”. For the same compound, in data set [2], the metabolic activation entry is “most likely starts with a-carbon hydroxylation” and the “binding of metabolites to macromolecules” value is listed as “bind to macromolecules”. Moreover, in [2] (whole-body autoradiography, adult male C57BL/6J mice, [14C] NNN), the “retention of radioactivity vs sites of tumor formation” value is given as “striking correlation”. For the compound `C[S+](C)[O-]` [dimethylsulfoxide (DMSO), dimethylsulfoxide], the “inhibition of nitrosamine localization” value in data set [3] was “found to delocalize nitrosamines”. On to `CC1=C(/C=C/C(C)=C/C=C/C(C)=C/CO)C(C)(C)CCC1` [retinol, reference compound], for which, in data set [4] (rat, in vivo, po), the “Acute Oral LD50” value was 2000 mg/kg. On to `CCCCCCCCCO` [n-Nonyl alcohol], for which the “Vapor Pressure” value in [5] (59.5° C.) was 1 mmHg. As for Methyl cyclohexanol, the “Vapor Pressure” value in data set [5] (30° C.) was 1.5 mmHg. With Dipropylene glycol monomethyl, the “Vapor Pressure” value in data set [5] (20° C.) is listed as “.3 mmHg”. Take `c1c[nH]cn1` [imidazole]: the “nitrosamine delocalization relative to control mouse” value in [6] (0.05 g/kg intraperitoneal, 20 min before [14C] NNN) is listed as “Significant nitrosamine delocalization”; in data set [6] (0.25 g/kg intraperitoneal), “significant delocalization of nitrosamine”. Also, in data set [3], the “inhibition of nitrosamine localization” value is recorded as “found to delocalize nitrosamines”. As to `CCCCO` [n-butanol], the “dose relation of reduction in photometric density” value (from here on “dose relation of reduction”) in [7] was “dose related”. The “Acute Oral LD50” value in data set [4] (rats, oral) is 790 mg/kg. For the compound `CC(O)CCO` (stereo not drawn) [1,3 Butanediol], the “Vapor Pressure” value in data set [5] (20° C.) was “.06 mmHg”. Turning to `CC(C)(O)C(C)(C)O` [Pinacol], the “Vapor Pressure” value in [5] (44° C.) is 1 mmHg. On to `CCCCCO` [n-amyl, n-amyl alcohol], for which, in data set [4] (rat, in vivo, po), the “Acute Oral LD50” value is 3030 mg/kg. Take `CCCCCCCCCCCCO` [Lauryl alcohol]: the “Vapor Pressure” value in data set [5] (91° C.) was 1 mmHg. For the compound `CC(C)(C)O` [t-butanol], the “localization of [14C] NNN in bronchial epithelium” value in [7] (at the high dosage (1 g/kg), oral) is listed as “almost completely abolished”. Besides, the “inhibition ranking in bronchial epithelium (FIG. 1)” value in data set [7] (comparison of ethanol, n-butanol, t-butanol) was “greatest inhibition”. Further, the “dose relation of reduction” value in [7] is recorded as “dose related”. Turning to Vitamin A, in [8], the tumor development result is recorded as “inhibit tumor development”.

Take `CN1CCCC1c1cccnc1` (stereo not drawn) [nicotine]: in [9], the “estimated acutely fatal oral dose” value was “one”. As for `CCCCCCC(C)O` (stereo not drawn) [Capryl alcohol], the “Vapor Pressure” value in data set [5] (32.8° C.) was 1 mmHg. As to `CCCCCCCCCCCCCCCCO` [Cetyl alcohol], in [4] (rats, oral), the “Acute Oral LD50” value was 20000 mg/kg. Besides, the “Vapor Pressure” value in data set [5] (122.7° C.) is recorded as 1 mmHg. For `CN(CCCC(=O)c1cccnc1)N=O` [NNK, 4(methylnitrosamino)-1-(3-pyridyl)-1-butanone], in data set [1], the carcinogenicity result is “powerful environmental carcinogens”. Also, in data set [2], the metabolic activation result is “most likely starts with a-carbon hydroxylation” and the “binding of metabolites to macromolecules” value is reported as “bind to macromolecules”.

As to `CC(C)CC(C)O` (stereo not drawn) [4-methyl-2-pentanol], in [4] (rats, oral), the “Acute Oral LD50” value was 2600 mg/kg.

`CCCCCCCCCCCCCCCCCCO` [Stearyl alcohol]: the “Vapor Pressure” value in [5] (50° C.) is given as 1 mmHg. Take `CCC(CC)CO` [2-Ethyl butyl alcohol]: the “Vapor Pressure” value in data set [5] (20° C.) is listed as 0.9 mmHg. As for `S=C=NCc1ccccc1` [benzylisothiocyanate], the “inhibition of nitrosamine localization” value in data set [3] is recorded as “found to delocalize nitrosamines”. In the case of Vitamin E, the “formation of nitrosamines on epithelial membranes” value in data set [10] is on record as “prevent the formation of nitrosamines”. Turning to `c1cn[nH]c1` [pyrazole], the “inhibition of nitrosamine localization” value in [3] is “found to delocalize nitrosamines”. Regarding `CC1CCC(C(C)C)C(O)C1` (stereo not drawn) [Menthol, reference compound], the “inhibition of nitrosamine localization” value in data set [3] is reported as “does not have the nitrosamine blocking effect; also recorded: does not inhibit nitrosamine localization”. In addition, the “Acute Oral LD50” value in data set [4] (rat, in vivo, po) was 3180 mg/kg. For the same compound, the “Vapor Pressure” value in data set [5] (56° C.) is 1 mmHg. As to `OCC=Cc1ccccc1` [Cinnamyl alcohol], the “Vapor Pressure” value in data set [5] (72.6° C.) was 1 mmHg. As for `O=C1O[C@H]([C@@H](O)CO)C(O)=C1O` [Vitamin C], in data set [10], the “formation of nitrosamines on epithelial membranes” value was “prevent the formation of nitrosamines”. In the case of `OC1CCCCC1` [Cyclohexanol], the “radioactivity in bronchial epithelium” value in data set [11] (26° C., 0.001% in air) is “No radioactivity was detected”; in [11] (50° C., 0.01% in air), “No radioactivity was detected”. In [12], the “concentration in cigarette smoke at TWA limit of OSHA” value worked out at 63 micrograms/cigarette. The “Toxicity (TWA OSHA)” value in [13] (8 h work day, 40 h work week) is on record as 200 mg/m^3. Besides, the “atmosphere concentration considered safe by OSHA” value in data set [13] (eight continuous hours) was “two hundred”. Moreover, the “Acute Oral LD50” value in data set [4] (rats, oral) was 2060 mg/kg. For the same compound, in data set [5] (21° C.), the “Vapor Pressure” value is given as 1 mmHg. As for `CCO` [ethanol], the “dose relation of reduction” value in data set [7] was “dose related”. In [7] (oral intubation 20 min before [14C] NNN, ethanol 1 and 5 g/kg, butanols 0.2 and 1 g/kg), the “reduction of localization of radioactivity in bronchial epithelium” value is reported as “reduced”. Also, in data set [14], the “reduction of localization of radioactivity in periportal and central areas of the liver” value is “reduced”. Also, the “reduction of localization of radioactivity in salivary duct epithelium” value in [15] was “reduced”. Further, the “Acute Oral LD50” value in [4] (rats, oral) was 14000 mg/kg. Regarding `CCCCCCCCCCO` [n-Decyl alcohol], the “Vapor Pressure” value in data set [5] (69.5° C.) is 1 mmHg.
